For one data set, the system named is Tetranychus urticae. As to the kind of experiment: Tetranychus urticae spray test, OP-resistant (TETRUR). Conditions: application rate of 500 g/ha; after 6 days. In kind it is in vivo. In a few lines: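 Bean leaf discs infested with all stages of an OP-resistant Tetranychus urticae strain sprayed with compound in acetone/DMF with alkylaryl polyglycol ether emulsifier, diluted in water. Efficacy in % scored after 6 days; 100% means all mites killed.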

Data set [1] is described as follows: log P by HPLC (OECD Guideline 117), method [a] acidic range. In kind it is physicochemical. Conditions: HPLC, method [a] acidic range. As for the experimental part:
(§1) The log P values were determined analogously to OECD Guideline 117 (EC Directive 92/69/EEC) by HPLC (high-performance liquid chromatography) using reversed-phase columns (C 18), by the following methods:
[a] The LC-MS determination in the acidic range is effected at pH 2.7 with 0.1% aqueous formic acid and acetonitrile (contains 0.1% formic acid) as eluents; linear gradient from 10% acetonitrile to 95% acetonitrile.

Data set [2] is described as follows: log P by HPLC (OECD Guideline 117), method [b] neutral range. Type of data set: physicochemical. Conditions: HPLC, method [b] neutral range. As for the experimental part: as §1
[b] The LC-MS determination in the neutral range is effected at pH 7.8 with 0.001 molar aqueous ammonium hydrogencarbonate solution and acetonitrile as eluents; linear gradient from 10% acetonitrile to 95% acetonitrile.

For the next data set, the system named is Meloidogyne incognita. As to the kind of experiment: Meloidogyne incognita test (MELGIN). In kind it is in vivo. The following applies: application rate of 20 ppm; after 14 days, by formation of galls. As for the experimental part:
Meloidogyne Incognita Test (MELGIN)
• Solvent: 125.0 parts by weight of acetone
To produce an appropriate active ingredient formulation, 1 part by weight of active ingredient is mixed with the specified amounts of solvent and the concentrate is diluted to the desired concentration with water.
Vessels are filled with sand, active ingredient solution, an egg/larvae suspension of the southern root-knot nematode (Meloidogyne incognita) and lettuce seeds. The lettuce seeds germinate and the plants develop. The galls develop on the roots
After 14 days, the nematicidal efficacy in % is determined by the formation of galls. 100% means that no galls have been found; 0% means that the number of galls on the treated plants corresponds to the untreated control.

For another data set, the system named is Boophilus microplus. The data set can be described thus: Boophilus microplus injection test (BOOPMI Inj). In kind it is in vivo. The following applies: application rate of 20 μg/animal, assessed after 7 days by laying of fertile eggs. In a few lines:
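Engorged adult female ticks (5 per test) injected in the abdomen with 1 μl of compound solution in DMSO, then held in a climate-controlled room. Efficacy scored after 7 days from fertile egg laying, with 100% meaning no fertile eggs and 0% all eggs fertile.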

The next data set deals with Phaedon cochleariae. The data set can be described thus: Phaedon cochleariae spray test (PHAECO). In kind it is in vivo. Conditions: application rate of 500 g/ha; after 7 days. As for the experimental part:
Phaedon cochleariae—Spray Test (PHAECO)
• Solvent: 78.0 parts by weight of acetone • 1.5 parts by weight of dimethylformamide • Emulsifier: 0.5 part by weight of alkylaryl polyglycol ether
To produce an appropriate active ingredient formulation, 1 part by weight of active ingredient is mixed with the specified amounts of solvent and emulsifier, and the concentrate is diluted to the desired concentration with emulsifier-containing water.
Discs of Chinese cabbage leaves (Brassica pekinensis) are sprayed with an active ingredient formulation of the desired concentration and, after drying, populated with larvae of the mustard beetle (Phaedon cochleariae).
After 7 days, the efficacy in % is determined 100% means that all beetle larvae have been killed; 0% means that none of the beetle larvae have been killed.

SMILES strings stand for the structures.

Regarding `Cc1cc(F)c(-n2nc(-c3ccc(Cl)cc3F)n(C)c2=O)cc1SCC(F)(F)F` [Example 40], in the data set with Tetranychus urticae, the efficacy amounted to 100%. Besides, the “logP[a]” value in data set [1] turned out to be 4.06. In addition, the “logP[b]” value in data set [2] worked out at 3.96. The nematicidal efficacy with Meloidogyne incognita is on record as 100%.

In the case of `CCC(C)Oc1nn(-c2cc(SCC(F)(F)F)c(C)cc2F)c(=O)n1C1CC1` (stereo not shown) [Example 140], the efficacy in the data set on Tetranychus urticae is given as 100%. The “logP[a]” value in data set [1] worked out at 4.36. Further, in data set [2], the “logP[b]” value turned out to be 4.30. Also, the nematicidal efficacy with Meloidogyne incognita is reported as 90%.

With `COc1nn(-c2cc([S+]([O-])CC(F)(F)F)c(C)cc2F)c(=O)n1CC(F)(F)F` (stereo not shown) [Example 415], the efficacy was found to be 90% in the data set with Tetranychus urticae and 100% with Boophilus microplus. Moreover, the “logP[a]” value in data set [1] worked out at 2.48. Moreover, the “logP[b]” value in data set [2] stood at 2.45. For the same compound, the nematicidal efficacy with Meloidogyne incognita turned out to be 100%.

`COc1nn(-c2cc([S+]([O-])CC(F)(F)F)c(C)cc2F)c(=O)n1C1CC1` (stereo not shown) [Example 104]: the efficacy in the data set with Tetranychus urticae and in the data set on Boophilus microplus was 100% in each case. Further, the “logP[a]” value in data set [1] came out at 2.13. Moreover, the “logP[b]” value in data set [2] amounted to 2.08. The nematicidal efficacy in the data set on Meloidogyne incognita is 90%.

`Cc1cc(F)c(-n2ncn(C3CC3)c2=O)cc1SCC(F)(F)F` [Example 61] returned an efficacy in the data set with Tetranychus urticae of 100%. Moreover, the “logP[a]” value in data set [1] was 2.62. Besides, the “logP[b]” value in data set [2] is on record as 2.59. Moreover, the nematicidal efficacy in the data set with Meloidogyne incognita was found to be 100%.

With `COc1nn(-c2cc(SCC(F)(F)F)c(C)cc2Cl)c(=O)n1C1CC1` [Example 116], the efficacy with Tetranychus urticae was 90%; with Boophilus microplus it was 100%. In addition, in data set [1], the “logP[a]” value came to 3.20. Further, the “logP[b]” value in data set [2] worked out at 3.30. The compound also registered a nematicidal efficacy with Meloidogyne incognita of 100%.

As to `COc1nn(-c2cc(SCC(F)(F)F)c(C)cc2F)c(=O)n1C1CC1` [Example 105], the efficacy with Tetranychus urticae and in the data set with Boophilus microplus was 100% in each case. The “logP[a]” value in data set [1] was found to be 3.16. Further, the “logP[b]” value in data set [2] worked out at 3.11. This compound also returned a nematicidal efficacy in the data set with Meloidogyne incognita of 90%.

Take `CCCCOc1nn(-c2cc([S+]([O-])CC(F)(F)F)c(C)cc2F)c(=O)n1C` (stereo not shown) [Example 146]: in the data set with Tetranychus urticae, the efficacy is on record as 100%. For the same compound, the “logP[a]” value in data set [1] amounted to 2.90. The “logP[b]” value in data set [2] was 2.85. In addition, the nematicidal efficacy in the data set on Meloidogyne incognita is given as 90%.

For `Cc1cc(F)c(-n2nnn(CC(F)(F)C(F)(F)F)c2=O)cc1SCC(F)(F)F` [Example 444], the efficacy with Tetranychus urticae amounted to 100%. Further, the “logP[a]” value in data set [1] was determined as 4.09. Also, the “logP[b]” value in data set [2] is given as 4.04. The same compound came in with a nematicidal efficacy in the data set on Meloidogyne incognita of 90%.

Consider `COc1nn(-c2ccc(Cl)c([S+]([O-])CC(F)(F)F)c2)c(=O)n1C` (stereo not shown) [Example 99], for which the efficacy is 90% with Tetranychus urticae and 100% in the data set with Boophilus microplus. For the same compound, the “logP[a]” value in data set [1] is on record as 2.54. Further, the “logP[b]” value in data set [2] was found to be 2.52. The compound also registered a nematicidal efficacy in the data set on Meloidogyne incognita of 90%.

In the case of `Cc1cc(F)c(-n2nc(OCC(F)(F)F)n(C)c2=O)cc1[S+]([O-])CC(F)(F)F` (stereo not shown) [Example 160], the efficacy with Tetranychus urticae and in the data set with Boophilus microplus was 100% each time. In data set [1], the “logP[a]” value was determined as 2.52. Moreover, the “logP[b]” value in data set [2] stood at 2.38. The compound also registered a nematicidal efficacy with Meloidogyne incognita of 100%.

As for `Cc1cc(F)c(-n2nc(OCC(F)(F)F)n(C3CC3)c2=O)cc1SCC(F)(F)F` [Example 103], the efficacy with Tetranychus urticae and in the data set on Boophilus microplus was 100% in each case. Moreover, the “logP[a]” value in data set [1] was 3.80. Also, the “logP[b]” value in data set [2] came to 3.72. This compound also had a nematicidal efficacy in the data set on Meloidogyne incognita of 100%.

In turn, `CC(CC(C)C)=Nn1c(C)nn(-c2cc(SCC(F)(F)F)c(C)cc2F)c1=O` [Example 202] displayed an efficacy in the data set with Tetranychus urticae of 100%. Moreover, the “logP[a]” value in data set [1] turned out to be 4.06. In data set [2], the “logP[b]” value is recorded as 3.98. In addition, the nematicidal efficacy with Meloidogyne incognita was determined as 100%.

Take `Cc1cc(F)c(-n2nc(OCC(C)(C)C)n(C)c2=O)cc1SCC(F)(F)F` [Example 150]: the efficacy with Tetranychus urticae was 100%. The “logP[a]” value in data set [1] was found to be 4.35. Further, the “logP[b]” value in data set [2] is recorded as 4.29. Also, the nematicidal efficacy in the data set on Meloidogyne incognita worked out at 90%.

Take `Cc1cc(F)c(N2CC(OCC3CC3)=CC2=O)cc1[S+]([O-])CC(F)(F)F` (stereo not shown) [Example 332]: the efficacy is 90% in the data set on Tetranychus urticae and 83% in the data set on Phaedon cochleariae. The “logP[a]” value in data set [1] is 2.55. For the same compound, in data set [2], the “logP[b]” value was determined as 2.50. For the same compound, the nematicidal efficacy in the data set on Meloidogyne incognita was 90%.

Regarding `COc1nn(-c2cc([S+]([O-])CC(F)(F)F)c(Cl)cc2F)c(=O)n1C1CC1` (stereo not shown) [Example 115], the efficacy in the data set on Tetranychus urticae and in the data set on Boophilus microplus was 100% in each case. For the same compound, the “logP[a]” value in data set [1] was 2.45. Further, the “logP[b]” value in data set [2] is reported as 2.43. In the data set on Meloidogyne incognita, this compound displayed a nematicidal efficacy of 90%.

For `CCc1nn(-c2cc(SCC(F)(F)F)c(C)cc2F)c(=S)n1C1CC1` [Example 502], the results for the efficacy in the data set on Tetranychus urticae and with Phaedon cochleariae were 90% and 83%, respectively. Further, the “logP[a]” value in data set [1] is 3.69. In data set [2], the “logP[b]” value is 3.65. The compound also had a nematicidal efficacy with Meloidogyne incognita of 90%.

Take `COc1nn(-c2cc([S+]([O-])CC(F)(F)F)c(C)cc2Cl)c(=O)n1C1CC1` (stereo not shown) [Example 117]: the efficacy is given as 90% in the data set on Tetranychus urticae and 100% in the data set with Boophilus microplus. The “logP[a]” value in data set [1] is given as 2.28. For the same compound, in data set [2], the “logP[b]” value stood at 2.30. This compound displayed a nematicidal efficacy with Meloidogyne incognita of 100%.

In turn, `Cc1cc(F)c(-n2nnn(CC(F)(F)F)c2=O)cc1SCC(F)(F)F` [Example 304] gave an efficacy in the data set with Tetranychus urticae of 100%. Besides, the “logP[a]” value in data set [1] is 3.61. In data set [2], the “logP[b]” value was 3.48. Besides, the nematicidal efficacy in the data set with Meloidogyne incognita is 100%.

Take `Cc1cc(F)c(-n2nc(C(F)(F)F)n(N(C)C)c2=O)cc1[S+]([O-])CC(F)(F)F` (stereo not shown) [Example 213]: the efficacy in the data set on Tetranychus urticae came out at 90%. Also, the “logP[a]” value in data set [1] was found to be 3.16. In addition, the “logP[b]” value in data set [2] is reported as 3.09. Besides, in the data set on Meloidogyne incognita, the nematicidal efficacy is reported as 90%.

For the compound `Cc1cc(F)c(-n2nnn(CC(F)(F)F)c2=O)cc1[S+]([O-])CC(F)(F)F` (racemic) [Example 305], the efficacy in the data set with Tetranychus urticae and in the data set with Boophilus microplus was 100% in each case. Also, the “logP[a]” value in data set [1] is on record as 2.57. The “logP[b]” value in data set [2] came to 2.51. This compound also registered a nematicidal efficacy with Meloidogyne incognita of 100%.

As for `Cc1cc(F)c(-n2nc(-c3ccc(Cl)cc3F)n(C)c2=O)cc1[S+]([O-])CC(F)(F)F` (stereo not shown) [Example 39], the efficacy in the data set on Tetranychus urticae worked out at 90%. In addition, in data set [1], the “logP[a]” value is 2.97. In data set [2], the “logP[b]” value is recorded as 2.91. The compound further had a nematicidal efficacy in the data set with Meloidogyne incognita of 90%.

For the compound `Cc1cc(F)c(-n2nnn(CC(F)(F)C(F)(F)F)c2=O)cc1[S+]([O-])CC(F)(F)F` (racemic) [Example 446], the efficacy with Tetranychus urticae amounted to 90%. The “logP[a]” value in data set [1] is reported as 3.05. In data set [2], the “logP[b]” value is listed as 3.01. Further, in the data set on Meloidogyne incognita, the nematicidal efficacy amounted to 100%.

In the case of `Cc1cc(F)c(-n2nc(OCC(F)(F)F)n(C3CC3)c2=O)cc1[S+]([O-])CC(F)(F)F` (stereo not shown) [Example 102], the efficacy in the data set on Tetranychus urticae and in the data set with Boophilus microplus was 100% in each case. In addition, the “logP[a]” value in data set [1] turned out to be 2.83. Besides, the “logP[b]” value in data set [2] is on record as 2.77. In the data set on Meloidogyne incognita, this compound returned a nematicidal efficacy of 100%.

The values above are taken from patent publication US9981940B2, “Aryl sulfide derivatives and aryl sulfoxide derivatives as acaricides and insecticides” (BAYER CROPSCIENCE AKTIENGESELLSCHAFT, priority 2013, dated 2018).
